From CN101659655A, “一类吡唑酰胺衍生物及其应用” (Nankai University, priority 2009, dated 2010)

How the values were obtained:
Type in all cases: in vivo
[1] = system: oriental armyworm, Mythimna separata Walker (东方粘虫); assay: bioactivity evaluation against oriental armyworm, leaf dip; details: in Zea mays, foliar, 72 h, read-out: mortality grade
[2] = system: diamondback moth, Plutella xylostella (L.) (小菜蛾); assay: bioactivity evaluation against diamondback moth, leaf dip; details: in Brassica oleracea, foliar, 72 h, read-out: mortality grade
[3] = system: beet armyworm, Laphygma exigua Hubner (甜菜夜蛾); assay: bioactivity evaluation against beet armyworm, leaf dip; details: Spodoptera exigua, in Brassica oleracea, foliar, 72 h, read-out: mortality grade

Measured: mortality at 500 ppm

Cc1cc(Cl)cc(C(=O)NC2CC2)c1NC(=O)c1cc(OCC(F)(F)F)nn1-c1ncccc1Cl [compound 18]
90 to 100%: all assays above
